Test results published in patent publication US20020193351A1, “Fungicidal and bactericidal compositions for plants containing phosphonate and phosphate salts, metal chelates, and derivatives thereof” (priority 1996, published 2002).
Like-named read-outs stand apart in the source and are kept apart here.

Legend:
Alternaria dauci = experiment: Carrot/Alternaria fungicide trial (Example 10); settings: for AVERAGE % OF INFECTION 04/23/96 / AVERAGE % OF INFECTION 04/05/96: 8 applications; for AVERAGE % OF INFECTION 04/23/96: 25 days after last application; for AVERAGE % OF INFECTION 04/05/96: seven days after last treatment; for Alternaria control on carrots, verdict: Example 10, comment on the table
Method: In the present example, carrots were inoculated with the Alternaria fungus. The carrots were then treated with the below listed fungicidal compositions. Also a control test was conducted. The percentage of the fungicide in the solution is also listed below along with the results. Plot size for testing was a single row of 25 feet by 4 repetitions in an RCB design. The fungicide was applied eight (8) times with the carrots then examined for infection seven (7) days and twenty-five (25) days after the last fungicidal treatment.
PLOT SIZE: Single Row×25 ft.×4 reps in a RCB design. Application dates: 2/2, 9,15,22,3/8,14,22, and 28. Rated 4/5 and 4/23/96
NOTE: Second rating was 25 days after last fungicide application. Plots were inoculated with Alternaria dauci.

[1] = system: Phytophthora infestans (Genotype US-8, Matingtype A2); format: in vivo; settings: for LESIONS PER PLANT / NO. INFECTED LEAFLETS PER PLANT / % LATE BLIGHT: potato, read seven days after inoculation; for % LATE BLIGHT: two treatments 7 days apart, inoculated 7 days later
[2] = system: Phytophthora infestans (Genotype US-17, Matingtype A1); format: in vivo; settings: tomato; 1% v/v; read seven days after inoculation
plants = settings: foliar applications; cited from earlier work
[3] = system: Citrus Greasy Spot perithecia; experiment: Citrus Greasy Spot perithecia count on Valencia orange leaves (Example 2); format: in vivo, Mycosphaerella citri; settings: for #PERITHECIA (Number of Perithecia Per 5 MM Field at 2.5×, Mean of Three Observations): applied mid-July, leaves harvested approximately 4 months later
Method: In the present Example, fungicides were again tested on “Valencia” oranges except the effect of various fungicides on perithecia was tested.
Twenty mature leaves (from the spring flush) per replicate were harvested approximately 4 months later and placed under greenhouse conditions and alternately wetted and dried to simulate natural defoliation and weathering.
These conditions, in turn, cause the fungus to sporulate by the formation of perithecia (spore production body of fungus). The […] were counted as a means of measuring the fungicidal activity of the treatments.
Number of Perithecia Per 5 MM Field at 2.5×—Mean of Three Observations
As used herein, a, b, c, and ab indicate statistical significance using Duncan's multiple range test. In interpreting the data, a different notation, e.g. b versus ab, means there was a statistically significant difference in the results. A difference in data of samples with the same letter notation was not statistically significant.

[4] = system: Oak Leaf Blister (Taphrina Caerulescens); experiment: Oak Leaf Blister control on laurel oaks (Example 5); format: in vivo; settings: for DISEASE INDEX: applications in July approximately 3 weeks apart, rated in August, index 1 = no disease to 5 = dead foliage
From the text: Applications were made in July approximately 3 weeks apart and rated in August a month later. See data below.

Erwinia = Erwinia control on Hibiscus rooted cuttings, dip and spray (Example 7); format: in vivo, Erwinia chrysanthemi; settings: for AVERAGE % INFECTION: dip, then foliar spray 7 days later
Method: A follow-up experiment to Example 6 was conducted on rooted cuttings which were dipped as they were removed from the propagation bed and foliarly sprayed 7 days later after being potted. […] Potted cuttings had not received any previous bactericide treatments prior to potting.

[5] = system: bacterial spots on pepper plants; format: in vivo; settings: weekly applications; g AI/liter: copper+mancozeb 2+1, Cu-EDDHA 0.1, CGA-143268 1.0, other CGA compounds 0.25 and 0.5
Xanthomonas campestris = experiment: Xanthomonas leaf spot of croton Codiaeum variegatum (Example 9); format: in vivo; settings: for AVERAGE % OF INFECTION: 3 weekly foliar applications after inoculation
Method: Croton plants inoculated with Xanthomonas were tested with various fungicides. […] AI/100 gal. and Kocide 101 at 7.4 lbs. AI/Acre (A) were applied as foliar applications to croton (Codiaeum variegatum) previously inoculated with Xanthomonas campestris a day earlier. Treatments were assigned in a RCB design and replicated 10 times with single pots. Treatments were applied 3 times on a weekly schedule and evaluated at 7 and 14 days following the last application. See data below.

Erwinia chrysanthemi = experiment: Erwinia control on Hibiscus cuttings, foliar spray (Example 6); format: in vivo; settings: for AVERAGE % INFECTION: rated one week later
From the text: Treatments were allowed to dry for one hour and then placed in a commercial propagation bed under intermittent mist and rated for bacterial (Erwinia chrysanthemi) infection one week later.

[6] = 1 gal. (0.53 wt. % AI)/100 gallons
[7] = 1 gal. (0.55 wt. % AI)/100 gallons

## iron ethylenediamine-di-o-hydroxyphenylacetic acid [Fe-EDDHA]
Alternaria dauci; 0.2 lb AI/100 gallons
  AVERAGE % OF INFECTION 04/23/96: 12.9%
  AVERAGE % OF INFECTION 04/05/96: 12.7%
Alternaria dauci
  Alternaria control on carrots, verdict: effective fungicides

## O=P([O-])([O-])O.[K+].[K+] [Sample K2HPO4, dipotassium phosphate]
Alternaria dauci; [6]
  AVERAGE % OF INFECTION 04/23/96: 8.2%
  AVERAGE % OF INFECTION 04/05/96: 6.9%
[1]; 1% v/v
  LESIONS PER PLANT: 41.4
  NO. INFECTED LEAFLETS PER PLANT: 31.1
  % LATE BLIGHT: 18.45%
[2]
  LESIONS PER PLANT: 74.8
  NO. INFECTED LEAFLETS PER PLANT: 36.5

## Fe-DTPA (di-ethylenetriaminepentaacetic acid)
plants
  Phytotoxicity rankings of Fe chelates: less phytotoxic

## CC1COC(Cn2cncn2)(c2ccc(Oc3ccc(Cl)cc3)cc2Cl)O1 (stereo not shown) [Difenconazole, 1-2[2-[4-(4-chlorophenoxy)-2-chlorophenyl-(4-methyl-1,3-dioxolan-2-l)-methyl]]-1H-1 ,2,4-triazole, reference compound]
[3]; rate 100 gm AI/100 gallons
  #PERITHECIA (Number of Perithecia Per 5 MM Field at 2.5×, Mean of Three Observations): 5.32 ab
[3]; rate 200 gm AI/100 gallons
  #PERITHECIA (Number of Perithecia Per 5 MM Field at 2.5×, Mean of Three Observations): 11.57 ab
[4]; 2 oz. product/100 gallons
  DISEASE INDEX: 2.25

## Sodium cupric ethylenediamine-di-o-hydroxyphenylacetic acid [Cu-EDDHA]
Alternaria dauci; 0.2 lb AI/100 gallons
  AVERAGE % OF INFECTION 04/23/96: 11.6%
  AVERAGE % OF INFECTION 04/05/96: 8.8%
Alternaria dauci
  Alternaria control on carrots, verdict: effectively limited percentage of fungicidal infection
Erwinia; 0.2 LB. AI/100 gallons
  AVERAGE % INFECTION: 19%
Erwinia; 0.2 lb. AI
  Control of Erwinia on Hibiscus, verdict: excellent control
Erwinia; 0.8 LB. AI/100 gallons
  AVERAGE % INFECTION: 32%
[5]
  Disease severity ranking 12 days after the last (eighth) application: exhibited some control
  Disease severity ranking after four applications: CGA-143268 which was equal to copper plus mancozeb and Cu-EDDHA in activity
[3]; Example 2, comment on the table
  Perithecia reduction, verdict: good results
[3]; rate 0.2 lbs. AI/100 gallons
  #PERITHECIA (Number of Perithecia Per 5 MM Field at 2.5×, Mean of Three Observations): 3.24 b
[3]; rate 0.4 lbs. AI/100 gallons
  #PERITHECIA (Number of Perithecia Per 5 MM Field at 2.5×, Mean of Three Observations): 5.93 ab
Xanthomonas campestris; 26 ml (.2 lb.) AI/100 gallons
  AVERAGE % OF INFECTION: .6%
Xanthomonas campestris; 52 ml (.4 lb.) AI/100 gallons
  AVERAGE % OF INFECTION: 1.0%
Xanthomonas campestris; compared to inoculated and noninoculated controls, Cu-EDDHA at the lower rate
  Control of Xanthomonas leaf spot of Codiaeum: control equal to the noninoculated control treatment
[1]; 0.2 lb. AI/acre
  LESIONS PER PLANT: 35.3
  NO. INFECTED LEAFLETS PER PLANT: 26.9
  % LATE BLIGHT: 12.30%
Erwinia chrysanthemi; 0.2 lb. AI
  Control of Erwinia on Hibiscus, verdict: excellent control
Erwinia chrysanthemi; 0.2 lb. AI Cu/100 gallons foliar spray
  AVERAGE % INFECTION: 6%
Erwinia chrysanthemi; 0.4 lb. AI Cu/100 gallons foliar spray
  AVERAGE % INFECTION: 8%
[4]; 8 oz. product/100 gallons
  DISEASE INDEX: 2.8
[4]; Example 5, comment on the table
  Oak leaf blister repression, verdict: suitable disease repression

## O=C([O-])CN(CCO)CCN(CC(=O)[O-])CC(=O)[O-].[Fe+3] [Fe-HEEDTA, Fe-HEEDTA (hydroxyethylethylenediaminetriacetic acid)]
plants
  Phytotoxicity rankings of Fe chelates: most phytotoxic

## O=C([O-])CN(CCN(CC(=O)[O-])CC(=O)[O-])CC(=O)[O-].[Fe+3] [Fe-EDTA, Fe-EDTA (ethylenediaminetetraacetic acid)]
plants
  Phytotoxicity rankings of Fe chelates: intermediate phytotoxic

## O=[PH]([O-])[O-].[K+].[K+] [Sample K2HPO3]
Alternaria dauci; [7]
  AVERAGE % OF INFECTION 04/23/96: 28.8%
  AVERAGE % OF INFECTION 04/05/96: 18.7%
[1]; Example 11, comment on the table
  Potato late blight control, verdict: good results in controlling the blight
[1]; 1% v/v
  LESIONS PER PLANT: 2.4
  NO. INFECTED LEAFLETS PER PLANT: 1.8
  % LATE BLIGHT: 1.85%
[2]
  LESIONS PER PLANT: 56.7
  NO. INFECTED LEAFLETS PER PLANT: 21.5
